Laboratory results reported in patent publication US11096985B2, “Antimicrobial peptides, their variants and uses” (priority 2015, dated 2021).
Where a SMILES comes first, the peptide text is derived from it. [ ]: non-standard residue; d: D form.

Columns and labels:
[1] = test system: clinical strains of Candida albicans; assay: MIC, clinical yeast strains, Candida albicans; type: cell-based; design: unit: μg/ml
Summary of the method: (§1)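 Broth microdilution in Mueller Hinton broth, inoculum adjusted to 5.0×10^5 cfu/ml, peptide tested at 0.125 to 128 μg/ml and incubated at 37° C. for 20 to 24 hours. MIC was the lowest concentration with no visible growth. Yeasts were tested in potato dextrose broth.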

[2] = test system: clinical strains of Pseudomonas aeruginosa; assay: MIC, clinical strains of P. aeruginosa; type: cell-based; design: unit: μg/ml; details: microdilution, Muller Hinton broth-cation adjusted, 0.02% BSA, 0.2% acetic acid
Experimental: (§2) Minimum inhibition concentrations (MICs) were determined against Escherichia coli (ATCC 25922), Staphylococcus aureus (ATCC 25923), Klebsiella pneumoniae (ATCC 10031) and Pseudomonas aeruginosa (ATCC 27853). Also clinical strains of E. coli, K. pneumoniae, E. cloacae, P. aeruginosa, Serratia marcescens, Proteus mirabilis, S. pneumoniae, Acinetobacter baumannii, A. johnsonii and S. aureus were used for MICs assays. Additionally, clinical strains of yeast including Candida albicans, C. glabrata, C. parapsilosis and C. quillermondiae were used. The susceptibility of these microorganisms to Chain peptides were determined using micro broth dilution assay. Colonies of the respective microorganism from Muller Hinton (MH) agar plates incubated overnight were suspended in MH broth media and final concentration of microorganism was adjusted to 5.0×10^5 cfu/ml. An aliquot of 10 μl of each Chain peptide, or gentamicin, tetracycline as reference antibiotics were added in differing concentrations along with 90 μl of bacterial suspension to 96 well polypropylene plates and incubated at 37° C. for 20 to 24 hours. Concentrations of Chain peptides and reference antibiotics ranged from 0.125 to 128 μg/ml and the MICs were recorded as the lowest concentration with no visual growth of bacteria. Similarly, antifungal MICs were tested in Potato dextrose broth.
(§3) Clinical strains of yeasts including Candida albicans, C. glabrata, C. parapsilosis and C. quillermondiae were also tested with the 12 Chain peptides. The minimum inhibitory concentration (MICs) varied between these peptides and are presented in Tables 4a, 4b, 4c and 5a, 5b, 5c. Peptides Chain 105, 201 and 308 are broad spectrum antimicrobials with MICs between 0.5-32 μg/ml against all the bacteria and yeasts tested, except Serratia marcescens and Proteus mirabilis, against which the MICs were between 64-128 μg/ml. Peptide Chain 306 has narrow spectrum activity against E.coli at 1 μg/ml and for the rest of the bacterial strains at >32 μg/ml (FIG. 10).

[3] = test system: clinical strains of Escherichia coli; assay: MIC, clinical strains of E. coli; type: cell-based; design: unit: μg/ml; details: microdilution, Muller Hinton broth-cation adjusted, 0.02% BSA, 0.2% acetic acid
Experimental: as §2, §3

[4] = test system: clinical strains of C. parapsilosis; assay: MIC, clinical yeast strains, C. parapsilosis; type: cell-based, Candida parapsilosis; design: unit: μg/ml
Summary of the method: as §1

[5] = test system: clinical strains of C. glabrata; assay: MIC, clinical yeast strains, C. glabrata; type: cell-based, Candida glabrata; design: unit: μg/ml
Summary of the method: as §1

[6] = test system: clinical strains of Streptococcus pneumoniae; assay: MIC, clinical strains of Streptococcus pneumoniae; type: cell-based; design: unit: µg/mL; details: microdilution, Muller Hinton broth-cation adjusted, 0.02% BSA, 0.2% acetic acid
Experimental: as §2, §3

[7] = test system: clinical strains of Serratia marcescens; assay: MIC, clinical strains of Serratia marcescens; type: cell-based; design: unit: µg/mL; details: microdilution, Muller Hinton broth-cation adjusted, 0.02% BSA, 0.2% acetic acid
Experimental: as §2, §3

[8] = test system: clinical strains of Staphylococcus aureus; assay: MIC, clinical strains of S. aureus; type: cell-based; design: unit: μg/ml; details: microdilution, Muller Hinton broth-cation adjusted, 0.02% BSA, 0.2% acetic acid
Experimental: as §2, §3

[9] = test system: clinical strains of Enterobacter cloacae; assay: MIC, clinical strains of Enterobacter cloacae; type: cell-based; design: unit: μg/ml; details: microdilution, Muller Hinton broth-cation adjusted, 0.02% BSA, 0.2% acetic acid
Experimental: as §2, §3

[10] = test system: clinical strains of C. quillermondiae; assay: MIC, clinical yeast strains, C. quillermondiae; type: cell-based; details: C. quillermondiae clinical yeast strain 1
Summary of the method: as §1

[11] = test system: clinical strains of Proteus mirabilis; assay: MIC, clinical strains of Proteus mirabilis; type: cell-based; design: unit: µg/mL; details: microdilution, Muller Hinton broth-cation adjusted, 0.02% BSA, 0.2% acetic acid
Experimental: as §2, §3

[12] = test system: clinical strains of Klebsiella pneumoniae; assay: MIC, clinical strains of K. pneumoniae; type: cell-based; design: unit: μg/ml; details: microdilution, Muller Hinton broth-cation adjusted, 0.02% BSA, 0.2% acetic acid
Experimental: as §2, §3

Measured: Minimum inhibitory concentration

CC(C)C[C@@H](NC(=O)[C@H](N)CCCNC(=N)N)C(=O)N[C@H](CCCCN)C(=O)N[C@H](Cc1c[nH]c2ccccc12)C(=O)N[C@H](Cc1ccccc1)C(=O)N[C@H](Cc1c[nH]c2ccccc12)C(=O)N[C@H](CC(C)C)C(=O)N[C@H](Cc1ccccc1)C(=O)N[C@H](CCCNC(=N)N)C(=O)N[C@H](CCCCN)C(=O)N[C@H](CCCNC(=N)N)C(=O)O [Chain307D] (H-[dR][dL][dK][dW][dF][dW][dL][dF][dR][dK][dR]-OH)
128: [7]; Serratia marcescens clinical strain 3 | [11]; Proteus mirabilis clinical strain 2 | [11]; Proteus mirabilis clinical strain 3
8: [2]; Pseudomonas aeruginosa clinical strain 4 | [2]; Pseudomonas aeruginosa clinical strain 5 | [4]; C. parapsilosis clinical yeast strain 2 | [4]; C. parapsilosis clinical yeast strain 3 | [4]; C. parapsilosis clinical yeast strain 4 | [5]; C. glabrata clinical yeast strain 1 | [5]; C. glabrata clinical yeast strain 3 | [9]; Enterobacter cloacae clinical strain 2 | [12]; Klebsiella pneumoniae clinical strain 1 | [12]; Klebsiella pneumoniae clinical strain 2
>128: [7]; Serratia marcescens clinical strain 1 | [7]; Serratia marcescens clinical strain 2 | [7]; Serratia marcescens clinical strain 4 | [7]; Serratia marcescens clinical strain 5 | [11]; Proteus mirabilis clinical strain 1 | [11]; Proteus mirabilis clinical strain 4 | [11]; Proteus mirabilis clinical strain 5
4: [3]; Escherichia coli clinical strain 1 | [3]; Escherichia coli clinical strain 2 | [3]; Escherichia coli clinical strain 3 | [3]; Escherichia coli clinical strain 5 | [6]; Streptococcus pneumoniae clinical strain 1 | [6]; Streptococcus pneumoniae clinical strain 2 | [6]; Streptococcus pneumoniae clinical strain 3 | [9]; Enterobacter cloacae clinical strain 1 | [9]; Enterobacter cloacae clinical strain 3 | [9]; Enterobacter cloacae clinical strain 4 | [9]; Enterobacter cloacae clinical strain 5 | [10] | [12]; Klebsiella pneumoniae clinical strain 5
2: [3]; Escherichia coli clinical strain 4 | [6]; Streptococcus pneumoniae clinical strain 4 | [6]; Streptococcus pneumoniae clinical strain 5 | [8]; Staphylococcus aureus clinical strain 1 | [8]; Staphylococcus aureus clinical strain 2 | [8]; Staphylococcus aureus clinical strain 3 | [8]; Staphylococcus aureus clinical strain 4 | [8]; Staphylococcus aureus clinical strain 5
16: [1]; Candida albicans clinical yeast strain 1 | [1]; Candida albicans clinical yeast strain 2 | [1]; Candida albicans clinical yeast strain 3 | [1]; Candida albicans clinical yeast strain 4 | [1]; Candida albicans clinical yeast strain 5 | [2]; Pseudomonas aeruginosa clinical strain 1 | [2]; Pseudomonas aeruginosa clinical strain 2 | [2]; Pseudomonas aeruginosa clinical strain 3 | [4]; C. parapsilosis clinical yeast strain 1 | [5]; C. glabrata clinical yeast strain 2 | [5]; C. glabrata clinical yeast strain 4 | [12]; Klebsiella pneumoniae clinical strain 3 | [12]; Klebsiella pneumoniae clinical strain 4
